Entries after “also recorded” stand apart in the source; their conditions may differ.
How the values were obtained:
[1] = system: human stomach cancer cell line SNU-16; test: In vivo combined use with Ki23057, SNU-16-transplanted nude mice; set-up: species or system nude mouse; settings: in combination with hFR2-14_H19/L1 20 mg/kg
Protocol: A human stomach cancer cell line SNU-16 (purchased from ATCC) was adjusted to 5×10^7 cells/mL with a 1:1 mixed solution of PBS and Matrigel (purchased from Nippon Becton Dickinson Company, Ltd.), and 0.1 mL of the cell suspension was subcutaneously transplanted to the axillary region of each nude mouse (CAnN.Cg-Foxnl^nu/CrlCrlj, female, 5 to 6 weeks old, purchased from Charles River Laboratories Japan Inc.). […] Administration of hFR2-14_H19/L1 was carried out 8, 11, 15, and 18 days after transplantation, and administration of Ki23057 was carried out 8, 9, 10, 11, 15, 16, 17, and 18 days after transplantation. The major axis (mm) and minor axis (mm) of the tumor were measured over time using an electronic digital caliper (manufactured by Mitsutoyo Corp.). The tumor volume was calculated according to the following expression: Tumor volume (mm^3)=½×[Major axis of the tumor]×[Minor axis of the tumor]×[Minor axis of the tumor]
The antitumor effect was evaluated on the basis of the percentage of tumor growth inhibition (TGI %) at 21 days after transplantation (3 days after final administration) and 32 days after transplantation (final assay day) according to the following expression: TGI (%)=(1−A/B)×100

[2] = system: SNU-16 cells; test: Amount of antigen FGFR2 on cell surface of SNU-16 treated with low-molecular compound (QIFIKIT); assay type: cell-based, human; settings: 100 to 1000 nM; compared with untreated or DMSO-treated SNU-16 cells
Protocol: This operation was repeated twice. […] The data was analyzed using Flowjo (manufactured by Tree Star Inc.).

[3] = system: human stomach cancer cell line SNU-16; test: In vivo combined use with AZD4547, SNU-16-transplanted nude mice; set-up: species or system nude mouse
Protocol: A human stomach cancer cell line SNU-16 (purchased from ATCC) was adjusted to 5×10^7 cells/mL with a 1:1 mixed solution of PBS and Matrigel (purchased from Nippon Becton Dickinson Company, Ltd.), and 0.1 mL of the cell suspension was subcutaneously transplanted to the axillary region of each nude mouse (CAnN.Cg-Foxnl^nu/CrlCrlj, female, 5 to 6 weeks old, purchased from Charles River Laboratories Japan Inc.). […] The major axis (mm) and minor axis (mm) of the tumor were measured over time using an electronic digital caliper (manufactured by Mitsutoyo Corp.). The tumor volume was calculated according to the following expression: Tumor volume (mm^3)=½×[Major axis of the tumor]×[Minor axis of the tumor]×[Minor axis of the tumor]
The antitumor effect was evaluated on the basis of the percentage of tumor growth inhibition (TGI %) at 21 days after transplantation (final assay day) according to the following expression: TGI (%)=(1−A/B)×100

Compound: COc1cc2c(Oc3ccc(Nc4ccc(C(C)(C)C)cc4)cc3)ccnc2cc1OCCNCCO [Ki23057, 2-((2-((4-(4-((4-(tert-butyl)phenyl)amino)phenoxy)-6-methoxyquinolin-7-yl)oxy)ethyl)amino)ethanol]
- TGI at 21 days after transplantation ([1]; Ki23057 5 mg/kg orally): 7%
- TGI at 32 days after transplantation (final assay day) ([1]; Ki23057 5 mg/kg orally): 1%
- TGI at 21 days after transplantation ([1]; Ki23057 20 mg/kg orally): 29%
- TGI at 32 days after transplantation (final assay day) ([1]; Ki23057 20 mg/kg orally): −14%
- number of the antigen FGFR2 on cell surface [2]: elevated; also recorded: increased

Compound: COc1cc(CCc2cc(NC(=O)c3ccc(N4C[C@@H](C)N[C@@H](C)C4)cc3)n[nH]2)cc(OC)c1 [AZD4547, N-(5-(3,5-dimethoxyphenethyl)-1H-pyrazol-3-yl)-4-((3S,5R)-3,5-dimethylpiperazin-1-yl)benzamide, reference compound]
- number of CR individuals among 9 mice at 21 days after transplantation ([3]; administered alone, hFR2-14_H19/L1 20 mg/kg): 0
- TGI at 21 days after transplantation (final assay day) ([3]; hFR2-14_H19/L1 20 mg/kg intraperitoneally, AZD4547 3 mg/kg orally): 24%

From patent US9931401B2, “Combination comprising anti-fibroblast growth factor receptor 2 (FGFR2) antibody and a tyrosine kinase inhibitor” (Daiichi Sankyo Company, Limited, priority 2013, dated 2018)
